Measurements from paper PMC9510126, “Hydrophobicity is a key determinant in the activity of arginine-rich cell penetrating peptides” (Scientific Reports, 2022).
Ends that are not written are not given here. * marks the point of attachment. RhodamineB = CCN(CC)c1ccc2c(-c3ccccc3C(=O)*)c3ccc(=[N+](CC)CC)cc-3oc2c1

How the values were obtained:
[1] = C18 reverse phase HPLC hydrophobicity of (X)TAT and d(X)TAT peptides; assay type: physicochemical; settings: chromatographic, C18, 0–40% B over 20 min
Protocol: (§1) In order to assess the hydrophobicity contributed by each X group, the peptides were first analyzed by reverse phase HPLC using a C18 column, using gradients of buffer A (water/TFA 99.9:0.1) and buffer B (acetonitrile/water/TFA 89.9:10:0.1 v:v:v) (gradient of 0–40% B over 20 min). […] All d(X)TAT peptides eluted over a range of 10–35% acetonitrile. […] One caveat of this approach is that the buffer system used for peptide analysis is pH 2 (due to the presence of TFA, required to protonate residue side chains). However, pH 2 is not representative of the pH that CPPs may be exposed to when in contact with cells, either pH 7.2 outside the plasma membrane, or pH between 6.5 and 4.5 while inside acidic endosomes. In order to establish the relative hydrophobicities of d(X)TAT peptides at these pHs, we sought to use other techniques, including thin layer chromatography using C18, aluminum oxide or silica stationary phases. Unfortunately, the arginine-rich peptides could not be separated on these systems. To solve this problem, each individual X group was synthesized, using acetylated and amidated N and C-terminal positions to mimic the peptide backbone found in the d(X)TAT constructs (Fig. 1A, Figure S11). Each Ac-X-NH2 group was analyzed by HPLC and by RP18 TLC, using 40% acetonitrile and 60% PBS as mobile phase. The HPLC elutions of Ac-X-NH2 correlated with the HPLC elutions of their respective d(X)TAT counterparts (Fig. 1C). Similarly, the relative hydrophobicities of Ac-X-NH2 determined by TLC (measured as 1-Rf) at pH 4 or 8 were in good agreement with the results obtained by HPLC (Fig. 1D). […] In the case of DEAC, the protonation state of the fluorophore has, to our knowledge, not been characterized.
All rpHPLC retention times were analyzed using an Agilent HP 1200 series instrument on an analytical Phenomenex Luna Omega Polar C18 column (5 μm, 4.6 mm × 250 mm). The flow rate was 2 mL/min, and detection was at 214 nm. A binary solvent system was used comprising 99.9% H2O/0.1% TFA (solvent A) and 90% Acetonitrile/9.9% H2O/0.1% TFA (solvent B). […]

MDA-MB-231 cells = experiment: Delivery of TMR-k5 probe into live cells (nuclear staining); assay type: cell-based, human; settings: MDA-MB-231, TMR-k5 20 μM, 1 h, biological triplicates
Description: To test the relative delivery efficiency of the d(X)TAT peptides, the cell lines MDA-MB-231 (epithelial-like, human breast cancer, spindle-shaped) and Neuro-2a (mouse neuroblastoma with neuronal and amoeboid stem cell morphology) were chosen. These cell lines are routinely used in cancer research, neuroscience, and toxicology. In the context of this study, we rationalized that the distinct differences in origin and characteristics between MDA-MB-231 and Neuro-2a properties may be useful to assess the generality of the results obtained. MDA-MB-231 or Neuro-2a cells were incubated with d(X)TAT peptides at various concentrations and TMR-k5 (20 μM) for 1 h. Cells were then washed, incubated with the DNA stain Hoechst and the live/dead marker SYTOX green (or SYTOX blue), and imaged by fluorescence microscopy. The localization of TMR-k5 in individual nuclei was then assessed by measuring the overlap between TMR and Hoechst signals (Fig. 2, Figure S13). […] This is because, in our experience, dfTAT and dfTAT analogs display a threshold behavior where, below a certain endosomal concentration, endosomal leakage is not achieved. In contrast above this threshold most late endosomes are permeabilized. […] Our rationale was therefore to titrate cells with different concentrations of d(X)TAT agents, monitor how many cells display cytosolic/nuclear delivery of TMR-k5, and compare the different d(X)TAT peptides.
MDA-MB-231 and Neuro2a cells obtained from ATCC (breast cancer-derived epithelial) were cultured in humidified atmosphere at 5% CO2 and 37 °C. Cells were seeded in plastic 48-well plates (Fisher) for quantitative analysis or 8-well Labtek II plates (Fisher) for qualitative imaging at 100× magnification. The cells were grown to 80–90% confluency in a 37 °C humidified atmosphere containing 5% CO2. Cells were washed three times with Leibovitz’s L15 media (L15) (Fisher). Cells were then incubated with peptide and 20 µM of the TMR-k5 pentalysine probe at 37 °C for 1 h. This was followed by washing the cells three times with L15 supplemented with heparin (Sigma-Aldrich) (1 mg/mL) and an extra L15 wash. […] Additionally, the cell permeable dye Hoechst 33342 (Thermo Fisher Scientific o) was used for nuclear staining. Cells were imaged using an EVOS FL Auto 2 inverted microscope (Thermo Fisher Scientific). The microscope is equipped with a heating chamber maintained at 37 °C. Images were acquired using bright field imaging and five fluorescence filter sets: CFP (Ex = 436 ± 10 nm, Em = 480 ± 20 nm), RFP (Ex = 560 ± 20 nm, Em = 630 ± 35 nm), FITC (Ex = 488 ± 10 nm Em = 520 ± 20 nm), DAPI (Ex = 350 ± 50 nm, Em = 460 ± 25 nm), […]. For image viewing and processing individual images, the Celleste 4.0 software (Thermo Fisher Scientific) was used. Nuclear regions in 20× images where identified using Hoechst staining (the quantification process is described in Figure S13). The intensity of these objects in the TMR channel was then determined using the Celleste software. Cells stained by the SYTOX or DRAQ dyes were considered dead and not counted as positive for delivery. Cells displaying a nuclear TMR-k5 fluorescence above the fluorescence threshold determined for TMR-k5 alone were considered positive for delivery (if excluding SYTOX or DRAQ7 stain, and if visually showing stained nucleoli for confirmation of intracellular localization). The percentage of cells positive for TMR-k5 nuclear staining was then calculated, using Hoechst-stained cells to count the total number of cells present. […] Instead, this assay quantifies the number of cells in which the nuclear fluorescence of TMR-k5 is above a detection threshold. This threshold is dependent on the microscope, imaging conditions, and the concentration of TMR-k5 used during incubation (Figure S13). The reproducibility of all the experiments was assessed by performing experiments with independent batches of cell cultures on three different days (i.e., biological triplicates). […]

[2] = RP-18 TLC hydrophobicity (1-Rf) of Ac-X-NH2 analogs; assay type: physicochemical; settings: RP18 TLC, 40% acetonitrile / 60% PBS (10 mM phosphate buffer), pH 4 vs pH 8
Protocol: as §1
Hydrophobic substituents (10 µL) were developed on aluminum-backed F254 RP-18 TLC plates (EMD Millipore). Plates were cut into 6 cm × 6 cm squares and developed in 40% acetonitrile/60% 10 mM phosphate buffer first along one axis at pH 2.0, then along the second axis at pH 7.4. Peptide substituents that could not be easily identified under long-wave UV light were stained with iodine for 10–20 min. Retention factors (Rf) were calculated based on the distance traveled by each compound between the starting spotted location and the final solvent front location.

[3] = design: method as in PMID 24227203; settings: cited from earlier work
live cells = settings: cited from earlier work
Protocol: Several strategies have been pursued to improve the delivery properties of CPPs like TAT. They include addition of endosomolytic peptide sequences, addition of hydrophobic residues and cyclization. We and others have shown that reagents which combine multiple copies of the TAT peptide, or TAT-like analogs, are also more efficient at entering cells than their monomeric TAT counterpart. […] In particular, protein payloads co-incubated with dfTAT reach the cytosol of cells by escaping late endosomes specifical ...

In the case of “d(K(RhB))TAT: disulfide dimer of CXRKKRRQRRRG with X = lysine conjugated to rhodamine B (CK(RhodamineB)RKKRRQRRRG-NH2; also: disulfide dimer)”, the “relative hydrophobicity of X group by C18 HPLC” value ([1]; 0.1% TFA (pH 2), ranking within the d(X)TAT series) is reported as “most hydrophobic” and the “d(X)TAT concentration at which delivery is achieved in a high percentage of cells” value (MDA-MB-231 cells) is reported as < 3 µM.
In the case of `CCN(CC)c1ccc2cc(C(=O)NCCCCC(NC(C)=O)C(N)=O)c(=O)oc2c1` (stereo not shown) [Ac-K(DEAC)-NH2], the “pH dependence of TLC retention (1-Rf)” value [2] is reported as “higher hydrophobicity at pH 4 than at pH 8”.
For `O=C1OC2(c3ccc(O)cc3Oc3cc(O)ccc32)c2ccccc21` [fluorescein], the “pKa (dianionic/monoanionic forms)” value [3] is given as 6.4, the “pKa (monoanionic/neutral forms)” value [3] is given as 4.3 and the “pKa (neutral/cationic forms)” value [3] is given as 2.1.
In the case of `CC(=O)N[C@@H](Cc1ccccc1)C(N)=O` [Ac-F-NH2], the “pH dependence of TLC retention (1-Rf)” value [2] is reported as “independent of pH”.
For `CC(=O)N[C@@H](Cc1c[nH]c2ccccc12)C(N)=O` [Ac-W-NH2], the “pH dependence of TLC retention (1-Rf)” value [2] was “independent of pH”.
For “(K(RhB))TAT: monomeric peptide CXRKKRRQRRRG with X = K(RhB) (CK(RhodamineB)RKKRRQRRRG-NH2)”, the “effect of dimerization on hydrophobicity (dimer vs monomer)” value ([1]; pH 2, (X)TAT vs d(X)TAT) was “most impacted by dimerization”.
In the case of `CC(=O)N[C@@H](Cc1ccc(O)cc1)C(N)=O` [Ac-Y-NH2], the “pH dependence of TLC retention (1-Rf)” value [2] is reported as “independent of pH”.
For “(CK(TMR)RKKRRQRRR)2 (disulfide) [dfTAT, dimer of TAT linked by a cystine disulfide bridge, labeled with two tetramethylrhodamine fluorophores]”, the endosomal escape (live cells) is given as “high levels of endosomal escape”, the “time for cell penetration and payload delivery” value (live cells) is given as “less than an hour” and the “protein payload remaining trapped inside endosomes relative to what entered the cytosol” value (live cells; protein payloads co-incubated with dfTAT) is given as “less than 10%”.
